Read-outs that look alike come from different tables or passages of the source.
Assay type: physicochemical
Method: 840 mg of sildenafil base (Carbosynth) was introduced into 40 ml of 50% aqueous ethanol at an unadjusted pH of 7.7. […] Finally, the pH of the mixture was further lowered to a pH of approximately 4 by the introduction of additional 1M HCl upon which the mixture began to solubilize.
840 mg of sildenafil base (Carbosynth), together with 840 mg of sucralose was introduced into 40 ml of 50% aqueous ethanol at an unadjusted pH of 7.7. […] The pH of the mixture was further lowered to a pH of approximately 4.6 by the introduction of additional 1M HCl upon which the mixture began to solubilize. Additional 1M HCl was added to the mixture until it completely solubilized at a pH of 3.83.
945 mg of sildenafil base (Carbosynth), together with 945 mg of sucralose was introduced into 45 ml of 50% aqueous ethanol at an unadjusted pH of 7.7. […] The pH of the mixture was then lowered to by the stepwise introduction of 1M HCl during stirring until the mixture was fully solubilized at pH 4.92.

With `CCCc1nn(C)c2c(=O)[nH]c(-c3cc(S(=O)(=O)N4CCN(C)CC4)ccc3OCC)nc12` [sildenafil base] the “pH at which the mixture completely solubilized” value was 3.83, the “pH at which the mixture was fully solubilized” value was 4.92 and the dissolution (Example 1a: 840 mg in 40 ml, pH 5.6 (1M HCl), stirred 10 minutes) was “remaining opaque and undissolved”. The dissolution (Example 1a: 840 mg in 40 ml, stirred at pH 4.25 for 1 hour, final pH 4.28) was “totally transparent and without precipitate”, the dissolution (Example 1a: 840 mg in 40 ml, unadjusted pH 7.7, stirring 10 minutes) was “remained undissolved” and the dissolution (Example 1b: 840 mg with 840 mg sucralose in 40 ml, pH 5.6 (1M HCl), stirred 10 minutes) was “remaining opaque and undissolved”. For the same molecule, the dissolution (Example 1b: 840 mg with 840 mg sucralose in 40 ml, unadjusted pH 7.7, stirring 10 minutes) was “remained undissolved” and the dissolution (Example 1c: 945 mg with 945 mg sucralose in 45 ml, unadjusted pH 7.7, stirring 10 minutes) was “remained undissolved”.
